US4808607A, “Imidazole analogs of mevalonolactone and derivatives thereof for use in inhibiting cholesterol biosynthesis and lowering blood cholesterol level” (Sandoz Pharm. Corp., priority 1987, dated 1989)
pIC50: −log10 of the molar value. Read-outs that look alike come from different tables or passages of the source.

Legend:
[1] = test system: 3β-hydroxysterol synthesis (cholesterol biosynthesis); test: Test B. In Vivo Cholesterol Biosynthesis Inhibition Test; set-up: species or system rat (male Wistar Royal Hart); conditions: Rattus norvegicus, read-out: ED50 in Test B (dose producing 50% inhibition of 3β-hydroxysterol synthesis)
Protocol: Test B. In Vivo Cholesterol Biosynthesis Inhibition Test: In vivo studies utilize male Wistar Royal Hart rats weighing 150±20 g. which have been kept for 7-10 days on an altered light cycle (6:30 A.M. - 6:30 P.M. dark) housed two per cage and fed powdered Purina Rat Chow and water ad libitum. Three hours before the diurnal maximum of cholesterol synthesis at mid-dark, the rats are administered orally the test substance (e.g., 0.001-200 mg./kg. body weight) dissolved or as a suspension in 0.5% carboxymethylcellulose in a volume of 1 ml./100 g. body weight. Controls receive vehicle alone. One hour after receiving the test substance (or the vehicle alone), the rats are injected intraperitoneally with about 25 μCi/100 g. body weight of sodium [1-^14 C]acetate 1-3 mCi/mmol. Two hours after mid-dark, blood samples are obtained under sodium hexobarbitol anesthesia, and the serum is separated by centrifugation. […] The [^14 C]digitonides are then counted by liquid scintillation spectrometry. After correcting for efficiencies, the results are calculated in nCi (nanocuries) of 3β-hydroxysterol formed per 100 ml. of serum.

HMG-CoA reductase = molecular target: T1, HMG-CoA reductase (Rattus norvegicus, UniProt P51639); test: Test A. In Vitro Microsomal Assay of HMG-CoA Reductase Inhibition; assay type: biochemical, rat (male Sprague-Dawley)
T1 construct: In the assay the microsomes are the source of the HMG-CoA reductase enzyme; from tissue; host or cells: liver microsomes of male Sprague-Dawley rats
T1 sequence (P51639 1-887): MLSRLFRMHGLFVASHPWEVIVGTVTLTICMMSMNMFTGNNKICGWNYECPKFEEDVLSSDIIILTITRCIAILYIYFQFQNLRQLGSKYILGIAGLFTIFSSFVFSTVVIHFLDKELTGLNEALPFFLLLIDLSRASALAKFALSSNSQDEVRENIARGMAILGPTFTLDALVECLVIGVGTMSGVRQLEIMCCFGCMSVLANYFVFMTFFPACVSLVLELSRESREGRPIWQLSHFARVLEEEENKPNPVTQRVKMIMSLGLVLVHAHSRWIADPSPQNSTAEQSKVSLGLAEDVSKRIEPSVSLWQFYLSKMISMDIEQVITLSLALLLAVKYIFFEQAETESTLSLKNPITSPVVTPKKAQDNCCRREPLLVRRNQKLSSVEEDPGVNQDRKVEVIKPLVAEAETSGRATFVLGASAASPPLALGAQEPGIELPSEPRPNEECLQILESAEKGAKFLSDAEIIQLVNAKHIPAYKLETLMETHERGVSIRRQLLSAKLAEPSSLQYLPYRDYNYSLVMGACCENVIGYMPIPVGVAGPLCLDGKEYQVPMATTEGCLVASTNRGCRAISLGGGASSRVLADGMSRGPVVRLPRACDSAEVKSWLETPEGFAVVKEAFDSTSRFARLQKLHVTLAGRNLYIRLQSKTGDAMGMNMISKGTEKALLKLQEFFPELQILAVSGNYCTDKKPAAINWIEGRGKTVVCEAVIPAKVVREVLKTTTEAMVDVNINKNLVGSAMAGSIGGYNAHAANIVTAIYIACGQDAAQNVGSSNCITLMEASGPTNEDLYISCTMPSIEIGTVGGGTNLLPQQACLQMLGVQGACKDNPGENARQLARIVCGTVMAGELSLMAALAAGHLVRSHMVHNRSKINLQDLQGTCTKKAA
Protocol: The compounds of Formula I and the pharmaceutically acceptable acid addition salts thereof are competitive inhibitors of 3-hydroxy-3-methylglutaryl coenzyme A (HMG-CoA) reductase, the rate limiting enzyme in cholesterol biosynthesis, and, therefore, they are inhibitors of cholesterol biosynthesis.
Test A. In Vitro Microsomal Assay of HMG--CoA Reductase Inhibition:
200 μl. aliquots (1.08-1.50 mg./ml.) of rat liver microsomal suspensions, freshly prepared from male SpragueDawley rats (150-225 g. body weight), in Buffer A with 10 mmol. dithiothreitol are incubated with 10 μl. of a solution of the test substance in dimethylacetamide and assayed for HMG--CoA reductase activity as described in Ackerman et al., J. Lipid Res. 18, 408-413 (1977), the concentration of the test substance in the assay system being 0.0001-2,000 μmolar. In the assay the microsomes are the source of the HMG-CoA reductase enzyme which catalyzes the reduction of HMG-CoA to mevalonate. The assay employs a chloroform extraction to separate the product, [^14 C]mevalonolactone, formed by the HMG-CoA reductase reduction of the substrate, [^14 C]HMG-CoA. [^3 H]mevalonolactone is added as an internal reference. Inhibition of HMG-CoA reductase is calculated from the decrease in specific activity ([^14 C/^3 H]mevalonate) of test groups compared to controls.
The IC50 is the concentration of the test substance in the assay system calculated or observed to produce a 50% inhibition of HMG-CoA reductase activity.

[2] = oral, single dose, male rats, [1-14C]acetate i.p. 1 h after dose, serum 3β-hydroxysterols
[3] = rat liver microsomes, [14C]HMG-CoA substrate, test substance in dimethylacetamide, read-out: IC50 in Test A (50% inhibition of HMG-CoA reductase activity)

| SMILES | ED50 [1, 2] | pIC50 (HMG-CoA reductase; [3]) | ED50 ([1]; po, 1 h) | pIC50 (HMG-CoA reductase) |
| --- | --- | --- | --- | --- |
| CC(C)c1nc(-c2ccccc2)n(-c2ccc(F)cc2)c1/C=C/[C@@H](O)C[C@@H](O)CC(=O)O [Example 2A, Sodium (3R,5S)-(E)-3,5-dihydroxy-7-[1'-(4"-fluorophenyl)-4'-(1"-methylethyl)-2'-phenyl-1H-imidazol-5'-yl]hept-6-enoate] | 0.02 mg/kg | 8.70 | – | – |
| CC(C)c1nc(-c2ccccc2)n(-c2ccccc2)c1/C=C/[C@@H](O)C[C@@H](O)CC(=O)O (relative stereo) [Example 10] | 0.028 mg/kg | 7.44 | – | – |
| CC(C)c1nc(-c2ccccc2)n(-c2ccc(F)cc2)c1/C=C/[C@@H](O)C[C@@H](O)CC(=O)O (relative stereo) [Example 2, Sodium (±)-erythro-(E)-3,5-dihydroxy-7-[1'-(4"-fluorophenyl)-4'-(1"-methylethyl)-2'-phenyl-1H-imidazol-5'-yl]hept-6-enoate] | 0.025 mg/kg | 8.59 | – | – |
| CC[C@H](C)C(=O)O[C@H]1CCC=C2C=C[C@H](C)[C@H](CC[C@@H]3C[C@@H](O)CC(=O)O3)[C@H]21 [Compactin, reference compound] | 3.5 mg/kg | 6.00 | – | – |
| CCC(C)C(=O)OC1CC(C)C=C2C=CC(C)C(CCC3CC(O)CC(=O)O3)C21 (stereo not shown) [Mevinolin, reference compound] | – | – | 0.38 mg/kg | 6.85 |
